Experimental data as given in patent US20240041042A1, “1-(PYRIDYL)-5-AZINYLPYRAZOLE DERIVATIVES, AND THEIR USE FOR CONTROL OF UNDESIRED PLANT GROWTH” (Bayer Aktiengesellschaft, priority 2020, published 2024).
Read-outs that look alike come from different tables or passages of the source.

Assays:
Type in all cases: in vivo
[1] = system: Setaria viridis (SETVI); assay: Post-emergence herbicidal action against SETVI
Method: (§1) Seeds of monocotyledonous and dicotyledonous weeds and crop plants are placed in sandy loam in plastic or organic planting pots, covered with soil and cultivated in a greenhouse under controlled growth conditions. 2 to 3 weeks after sowing, the test plants are treated at the one-leaf stage. The compounds of the invention, formulated in the form of wettable powders (WP) or as emulsion concentrates (EC), are then sprayed onto the green parts of the plants as aqueous suspension or emulsion with addition of 0.5% additive at a water application rate of 600 l/ha (converted). After the test plants have been kept in the greenhouse under optimum growth conditions for about 3 weeks, the activity of the preparations is rated visually in comparison to untreated controls. For example, 100% activity=the plants have died, 0% activity=like control plants.
(§2) Tables B1 to B13 below show the effects of selected compounds of the general formula (I) according to Table 1 on various harmful plants and at an application rate corresponding to 320 g/ha or lower, which were obtained by the experimental procedure mentioned above. The appendices “a”, “b” and “c” give differentiation by dosage used with otherwise the same harmful plants tested.

[2] = system: Polygonum convolvulus (POLCO); assay: Post-emergence herbicidal action against POLCO
Method: as §1, §2

[3] = system: Viola tricolor (VIOTR); assay: Pre-emergence herbicidal action against VIOTR
From the text: (§3) Seeds of monocotyledonous and dicotyledonous weed plants and crop plants are placed in plastic or organic planting pots and covered with soil. The compounds of the invention, formulated in the form of wettable powders (WP) or as emulsion concentrates (EC), are then applied to the surface of the covering soil as aqueous suspension or emulsion with addition of 0.5% additive at a water application rate equivalent to 600 l/ha. After the treatment, the pots are placed in a greenhouse and kept under good growth conditions for the trial plants. After about 3 weeks, the effect of the preparations is scored visually in comparison with untreated controls as percentages. For example, 100% activity=the plants have died, 0% activity=like control plants.
(§4) Tables A1 to A13 below show the effects of selected compounds of the general formula (I) on various harmful plants and at an application rate corresponding to 320 g/ha or lower, which were obtained by the experimental procedure mentioned above. The appendices “a”, “b” and “c” give differentiation by dosage used with otherwise the same harmful plants tested.

[4] = system: Matricaria inodora (MATIN); assay: Pre-emergence herbicidal action against MATIN
From the text: as §3, §4

[5] = system: Abutilon theophrasti (ABUTH); assay: Post-emergence herbicidal action against ABUTH; details: 320 g/ha, visual rating about 3 weeks after treatment vs untreated controls (100% = plants have died, 0% = like control plants)
Method: as §1, §2

[6] = system: Verconica persica (VERPE); assay: Pre-emergence herbicidal action against VERPE
From the text: as §3, §4

[7] = system: Pharbitis purpurea (PHBPU); assay: Pre-emergence herbicidal action against PHBPU
From the text: as §3, §4

[8] = system: Amaranthus retroflexus (AMARE); assay: Pre-emergence herbicidal action against AMARE; details: visual scoring after about 3 weeks vs untreated controls
From the text: as §3, §4

[9] = system: Lolium rigidum (LOLRI); assay: Post-emergence herbicidal action against LOLRI
Method: as §1, §2

[10] = system: Alopecurus myosuroides (ALOMY); assay: Post-emergence herbicidal action against ALOMY; details: 320 g/ha, visual rating about 3 weeks after treatment vs untreated controls (100% = plants have died, 0% = like control plants)
Method: as §1, §2

[11] = system: Setaria viridis (SETVI); assay: Pre-emergence herbicidal action against SETVI
From the text: as §3, §4

[12] = system: Lolium rigidum (LOLRI); assay: Pre-emergence herbicidal action against LOLRI
From the text: as §3, §4

[13] = system: Echinochloa crus-galli (ECHCG); assay: Post-emergence herbicidal action against ECHCG
Method: as §1, §2

[14] = system: Avena fatua (AVEFA); assay: Pre-emergence herbicidal action against AVEFA; details: 320 g/ha, visual scoring after about 3 weeks vs untreated controls
From the text: as §3, §4

[15] = system: Polygonum convolvulus (POLCO); assay: Pre-emergence herbicidal action against POLCO
From the text: as §3, §4

[16] = system: Oryza sativa (ORYSA); details: crop plant compatibility, effect in comparison to untreated controls
Method: as §1
The observed effects on selected crop plants are reported here in comparison to the untreated controls (values in %). The appendices “a”, “b” and “c” give differentiation by dosage used with otherwise the same crop plants tested.

[17] = system: Verconica persica (VERPE); assay: Post-emergence herbicidal action against VERPE
Method: as §1, §2

[18] = system: Alopecurus myosuroides (ALOMY); assay: Pre-emergence herbicidal action against ALOMY; details: scored visually after about 3 weeks, 100% = plants have died
From the text: as §3, §4

[19] = system: Avena fatua (AVEFA); assay: Post-emergence herbicidal action against AVEFA; details: visual rating about 3 weeks after treatment
Method: as §1, §2

[20] = system: Viola tricolor (VIOTR); assay: Post-emergence herbicidal action against VIOTR
Method: as §1, §2

[21] = system: Amaranthus retroflexus (AMARE); assay: Post-emergence herbicidal action against AMARE
Method: as §1, §2

[22] = system: Echinochloa crus-galli (ECHCG); assay: Pre-emergence herbicidal action against ECHCG
From the text: as §3, §4

[23] = system: Pharbitis purpurea (PHBPU); assay: Post-emergence herbicidal action against PHBPU
Method: as §1, §2

[24] = system: Matricaria inodora (MATIN); assay: Post-emergence herbicidal action against MATIN
Method: as §1, §2

[25] = 320 g/ha, visual rating about 3 weeks after treatment

| Post-emergence action against ORYSA in % ([16]; 80 g/ha) | Compound | Post-emergence action against SETVI in % ([1]; dosage 80 g/ha) | Post-emergence action against SETVI in % ([1]; dosage 320 g/ha) | Pre-emergence action against VIOTR in % ([3]; 320 g/ha, Viola tricolor) | Pre-emergence action against VIOTR in % ([3]; dosage 80 g/ha) | Pre-emergence action against MATIN in % ([4]; dosage 320 g/ha) | Post-emergence action against ABUTH in % [5] | Pre-emergence action against VERPE in % ([6]; dosage 320 g/ha) | Pre-emergence action against PHBPU in % ([7]; dosage 320 g/ha) | Pre-emergence action against AMARE in % ([8]; 80 g/ha) | Pre-emergence action against AMARE in % ([8]; 320 g/ha) | Post-emergence action against LOLRI in % ([9]; dosage 320 g/ha) | Post-emergence action against ALOMY in % [10] | Pre-emergence action against SETVI in % ([11]; dosage 80 g/ha) | Pre-emergence action against SETVI in % ([11]; dosage 320 g/ha) | Pre-emergence action against LOLRI in % ([12]; dosage 320 g/ha) | Post-emergence action against ECHCG in % ([13]; dosage 80 g/ha) | Post-emergence action against ECHCG in % ([13]; dosage 320 g/ha) | Pre-emergence action against POLCO in % ([15]; dosage 80 g/ha) | Pre-emergence action against POLCO in % ([15]; dosage 320 g/ha) | other results |
| --- | --- | --- | --- | --- | --- | --- | --- | --- | --- | --- | --- | --- | --- | --- | --- | --- | --- | --- | --- | --- | --- |
| 0% | CC(NC(=O)[C@@H](C)Oc1nn(-c2ccccn2)c(-c2ccc(F)nc2)c1Cl)C(=O)O (some centres unmarked) [Example I-350] | 80% | 90% | 100% | 100% | 90% | 90% | 100% | 80% | 100% | 100% | 90% | 90% | 100% | 100% | 100% | 80% | 90% | 90% | 90% | Post-emergence action against POLCO in % ([2]; dosage 80 g/ha): 80%; Post-emergence action against POLCO in % ([2]; dosage 320 g/ha): 90%; Pre-emergence action against VERPE in % ([6]; dosage 80 g/ha): 90%; Post-emergence action against LOLRI in % ([9]; dosage 80 g/ha): 80%; Pre-emergence action against LOLRI in % ([12]; dosage 80 g/ha): 100%; Pre-emergence action against AVEFA in % [14]: 100%; Post-emergence action against ORYSA in % ([16]; 320 g/ha): 10%; Post-emergence action against VERPE in % ([17]; 320 g/ha, VERPE): 90%; Pre-emergence action against ALOMY ([18]; 80 g/ha): 100%; Pre-emergence action against ALOMY ([18]; 320 g/ha): 100%; Post-emergence action against AVEFA in % ([19]; 80 g/ha): 90%; Post-emergence action against AVEFA in % ([19]; 320 g/ha): 90%; Post-emergence action against VIOTR in % ([20]; 80 g/ha): 90%; Post-emergence action against VIOTR in % ([20]; 320 g/ha): 90%; Post-emergence action against AMARE in % ([21]; 80 g/ha, visual rating about 3 weeks after treatment vs untreated controls (100% = plants have died, 0% = like control plants)): 90%; Post-emergence action against AMARE in % [21, 25]: 90%; Pre-emergence action against ECHCG in % ([22]; dosage 80 g/ha): 100%; Pre-emergence action against ECHCG in % ([22]; dosage 320 g/ha): 100% |
| 10% | COC(=O)COc1nn(-c2nc(F)ccc2F)c(-c2cncc(F)c2)c1Br [Example I-210] | 80% | 80% | 100% | 90% | 90% | 80% | 100% | 90% | 80% | 100% | 80% | 90% | 90% | 100% | 80% | 80% | 80% | 90% | 100% | Pre-emergence action against MATIN in % ([4]; dosage 80 g/ha): 90%; Pre-emergence action against PHBPU in % ([7]; dosage 80 g/ha): 90%; Post-emergence action against PHBPU in % ([23]; dosage 80 g/ha): 90%; Post-emergence action against PHBPU in % ([23]; dosage 320 g/ha): 100%; Post-emergence action against VERPE in % ([17]; 320 g/ha, VERPE): 90%; Post-emergence action against VERPE in % ([17]; dosage 80 g/ha): 90%; Pre-emergence action against ALOMY ([18]; 80 g/ha): 80%; Pre-emergence action against ALOMY ([18]; 320 g/ha): 90%; Post-emergence action against AMARE in % [21, 25]: 80%; Pre-emergence action against ECHCG in % ([22]; dosage 80 g/ha): 90%; Pre-emergence action against ECHCG in % ([22]; dosage 320 g/ha): 100%; Post-emergence action against MATIN in % ([24]; dosage 80 g/ha): 80%; Post-emergence action against MATIN in % ([24]; dosage 320 g/ha): 80% |
